Data reported in patent US8013016B2, “Use of acetyl L-carnitine for the treatment of fibromyalgic syndrome” (Sigma-Tau Industrie Farmaceutiche Riunite S.p.A., priority 2004, dated 2011).

Legend:
[1] = tested on: patients with fibromyalgic syndrome; assay: Multicentre, randomized, placebo-controlled, double-blind clinical trial: evoked pain at ACR tender points (Pressure Threshold Meter algometer); assay type: in vivo, human; conditions: for Mean variation compared to baseline (evoked pain at ACR tender points, algometer): N = 42
Method: (§1) A multicentre, randomized, placebo-controlled, double-blind clinical trial was conducted, the aim of which was to evaluate the efficacy of acetyl L-carnitine in patients with fibromyalgic syndrome.
For the evaluation of the efficacy of the compound according to the present invention evoked pain was monitored (as measured with the “Pressure Threshold Meter” algometer) in the osteoarticular regions indicated by “The American College of Rheumatology” (ACR) as being “tender points” characteristic of fibromyalgia syndrome. [WOLFE F, SMYTHE H A, YUNUS M B, et al. The American College of Rheumatology Criteria for the classification of fibromyalgia: report of the multicenter criteria committee; Arthritis Rheum 1990; 33(2): 160-172].
The patients included in the trial were patients of either gender aged from 25 to 65 years, who matched up to the above-mentioned American College of Rheumatology diagnostic criteria for fibromyalgia syndrome.
The diagnostic criteria for fibromyalgic syndrome had to be confirmed by the presence of all four of the following conditions: • bilateral diffuse pain in the axial skeleton; • bilateral diffuse pain in the upper limbs; • bilateral diffuse pain in the lower limbs; • pain located in 11 or more of the 18 anatomical regions listed in the map of tender points (ACR tender points) evoked with a standardised pressure manoeuvre.
Patients with any one of the following conditions were not recruited into the trial: • presence of infections or inflammatory processes affecting the osteoarticular or tegumental apparatus; • history or presence of clinically important osteoarticular disease capable of confounding the evaluation of the study treatments (e.g. history of trauma); • previous orthopaedic surgery, spondyloarthrosis, connectivitis etc.; • clinical or laboratory evidence of dysthyroidism; • presence of systemic diseases (diabetes, kidney, cardiovascular and respiratory disease, psychiatric illness) or major pathological conditions capable of interfering with the evaluation of the study treatments; • continuous use of anti-inflammatory steroids during the last 3 months prior to the trial; • recent initiation of oestrogen-progestogen hormone replacement therapy (<1 year); • therapy with antidepressant drugs during the last 6 months prior to the trial; • therapy with non-steroidal anti-inflammatory drugs during the last 3 days prior to the trial; • therapy with analgesic drugs during the last 7 days prior to the trial; • participation in a clinical trial during the previous 6 months; • pregnant women, breastfeeding women, or women of childbearing age not adopting an adequate contraceptive method.
Acetyl L-carnitine was administered for a period of 10 consecutive weeks at a dose of 1,500 mg/day. […]

[2] = tested on: patients with fibromyalgic syndrome; assay: Same clinical trial: secondary clinical parameters assessed with visual analogue scales; assay type: in vivo, human; conditions: end of the treatment period (10 weeks), 1,500 mg/day; P<0.05
Method: as §1
Also monitored were additional secondary parameters which will be discussed later.
Acetyl L-carnitine was administered for a period of 10 consecutive weeks at a dose of 1,500 mg/day.
During the first two weeks it was administered at the dose of 500 mg by the intramuscular route (i.m.) and 500 mg (twice daily) by the oral route (os).
Over the following eight weeks acetyl L-carnitine was administered orally at doses of 500 mg three times daily.

CC(=O)O[C@H](CC(=O)[O-])C[N+](C)(C)C [Acetyl L-carnitine, acetyl L-carnitine]
Improvement in pain evoked in the osteoarticular regions (ACR tender points) as compared to the control group ([1]; end of therapy (10 weeks), 1,500 mg/day, vs placebo): statistically significant improvement
Mean variation compared to baseline (evoked pain at ACR tender points, algometer) ([1]; visit 2 weeks, 1,500 mg/day (500 mg i.m. + 500 mg twice daily os), placebo 0.16 (0.39)): 0.24 (0.64)
Mean variation compared to baseline (evoked pain at ACR tender points, algometer) ([1]; visit 6 weeks, 1,500 mg/day (first 2 weeks i.m. + os, then 500 mg three times daily os), placebo 0.45 (0.57)): 0.55 (0.64)
Mean variation compared to baseline (evoked pain at ACR tender points, algometer) ([1]; visit 10 weeks (end of therapy), 1,500 mg/day, placebo 0.34 (0.66), P<0.05 Student's t-test): 0.71 (0.71)
General well-being (visual analogue scale) [2]: statistically significant improvements
Mental health (visual analogue scale) [2]: statistically significant improvements
Physical health in general (visual analogue scale) [2]: statistically significant improvements
